This is an account of results in patent US20250161312A1, “A METHOD FOR THE TREATMENT OF CHEMOTHERAPEUTIC DRUG-INDUCED NEPHROTOXICITY” (INSTITUT NATIONAL DE LA SANTÉ ET DE LA RECHERCHE MÉDICALE, priority 2022, published 2025).

In one test the test system is RPTEC/hTERT cells. Put plainly: Red Oil staining of RPTEC/hTERT cells. The class given is cell-based, human. As to conditions: cisplatin 50 μM, 25 μM KW-6002, 48 hours. As for the experimental part:
(§1) FIG. 6. KW6002 alleviates the cisplatin-induced nephrotoxicity associated with apoptosis, lipid metabolism, and oxidative stress. (A) Tail moment assessed by comet assay; 50 cells/condition were analyzed. (B and C) KW6002 attenuates cisplatin-induced renal lipid accumulation, assessed by Red Oil staining. […] Results are the mean±SEM (n=6-9 mice/group). (F-H) KW6002 attenuated cisplatin-induced oxidative stress in RPTEC/hTERT1 cells. (F and G) Gene expression of Nrf2 (F) and HO1 (G). […] Results are the mean±SEM (n=3 independent experiments).
(§2) 10 μm frozen kidney mouse sections were fixed with ethanol (60%) then incubated for 15 min with Oil Red O Solution (Fisher Biotech) dissolved in isopropanol. After several washes with ddH2O, samples were incubated 3 min with hematoxylin. Lipid droplets are stained in red whereas nuclei appeared blue. […] RPTEC/hTERT cells were fixed with ethanol (60%) then incubated for 15 min with Oil Red O Solution. The cells were washed three times with ddH2O and incubated 3 min with hematoxylin. Coverslips were rinsed with H2O before mounting on microscope slides using glycerol gelatin aqueous slide mounting medium (Sigma). Quantifications were performed blindly using ImageJ software. […] The resulting red color images were quantified using a custom threshold (0.173 for RPTEC/hTERT cells and 0.140 for kidney stainings).

The subject of the next test is kidney mouse sections. Description: Red Oil staining of kidney mouse sections. The format is in vivo. The following applies: Red Oil staining, kidney samples. As to the method:
as §1, §2

The test system of a further test is RPTEC/hTERT1 cells. Put plainly: Comet assay in RPTEC/hTERT1 cells. The class given is cell-based, human. As to conditions: FIG. 6A. As to the method:
as §1
Treated cells were suspended (60,000 cells/mL) in low-melt agarose (1613111, Bio-Rad) 0.5% in PBS at 42° C. The suspension was then immediately spread on a comet slide (4250-200-03, R&D Systems). Agarose was allowed to cool down for 20 minutes at 4° C. Then, cell membranes were permeabilized with a lysis solution (2.5M NaCl, 100 mM EDTA, 10 mM Tris-HCl, 1% Triton X-100 [pH 10]) at 4° C. for 1 hour. […] The images were analyzed using an ImageJ in-home macro, in which the head (the nucleus) and tail (the DNA that migrated) of the comet were delimited to get the fluorescence intensity of the head, the fluorescence intensity of the tail, and the length of the tail. The calculation of tail moments was done using the following formula: (length of the comet tail×fluorescence intensity of the tail)/total fluorescence intensity (head+tail).

In a further test the test system is tumor cell transcriptome. Description: Whole transcriptome analysis of LLC1 tumors. The format is in vivo, mice. As to the method:
RNA-seq libraries (n=5-6/group) were generated from 500 ng of total RNA using Illumina® TruSeq® Stranded mRNA Library Prep Kit v2. Briefly, following purification with poly-T oligo attached magnetic beads, the mRNA was fragmented using divalent cations at 94° C. for 2 min. The cleaved RNA fragments were copied into first-strand cDNA using reverse transcriptase and random primers. […] Surplus PCR primers were further removed by purification using AMPure XP beads (Beckman Coulter), and the final cDNA libraries were checked for quality and quantified using capillary electrophoresis. Sequencing was performed on the Illumina® Genome Hiseq4000 as single-end 50 base reads following Illumina's instructions. Reads were mapped onto the mm 10 assembly of Mus musculus genome using STAR v2.5.3a (72). Only uniquely aligned reads were kept for further analyses. Quantification of gene expression was performed using HTSeq-count v0.6.1p1 (73) and gene annotations from Ensembl releases 90 and 102 and “union” mode. Read counts were normalized across libraries with the method proposed by Ander et al. (74). […]

`CCn1c(=O)c2c(nc(/C=C/c3ccc(OC)c(OC)c3)n2C)n(CC)c1=O` [KW-6002, 8-[(E)-2-(3,4-dimethoxyphenyl)vinyl]-1,3-diethyl-7-methyl-3,7-dihydro-1H-purine-2,6-dione]: the “lipid accumulation induced by cisplatin” value in the test with RPTEC/hTERT cells was “significantly reduced”. Besides, in the test on kidney mouse sections, the “cisplatin-induced accumulation of lipid droplets in kidney” value is given as “significantly reduced”. In the test on RPTEC/hTERT1 cells, the “cisplatin-induced DNA damage (tail moment)” value is recorded as “inhibiting”. Further, the “selectively modulated genes that were downregulated” value with tumor cell transcriptome (among the 2497) worked out at 1016 genes. The “genes selectively modulated by cisplatin/KW-6002 co-treatment vs. vehicle” value with tumor cell transcriptome (out of 3923) is reported as 2497 genes.
